Tests used:
[1] = Cytotoxicity against vemurafenib-resistant human A375 R5C3 cells assessed as cell viability at 10 uM after 48 hrs by trypan blue exclusion assay relative to control; format: functional; details: A-375, 48 h, read-out: Activity
[2] = tested on: MIA PaCa-2; experiment: Cytotoxicity against gemcitabine-resistant human MIAPaCa2 cells assessed as cell viability at 10 uM after 48 hrs by trypan blue exclusion assay relative to control; format: functional; details: MIA PaCa-2, 48 h, read-out: Activity
[3] = tested on: K562; experiment: Cytotoxicity against imatinib-sensitive human K562 cells assessed as cell viability at 10 uM after 48 hrs by trypan blue exclusion assay relative to control; format: functional; details: K562, 48 h, read-out: Activity
[4] = tested on: BXPC-3; experiment: Cytotoxicity against gemcitabine-sensitive human BxPC3 cells assessed as cell viability at 10 uM after 48 hrs by trypan blue exclusion assay relative to control; format: functional; details: BXPC-3, 48 h, read-out: Activity
[5] = tested on: A-375; experiment: Cytotoxicity against vemurafenib-sensitive human A375 cells assessed as cell viability at 10 uM after 48 hrs by trypan blue exclusion assay relative to control; format: functional; details: A-375, 48 h, read-out: Activity
[6] = Cytotoxicity against vemurafenib-resistant human A375 RIV cells assessed as cell viability at 1 uM after 48 hrs by trypan blue exclusion assay relative to control; format: functional; details: A-375, 48 h, read-out: Activity
[7] = tested on: K562; experiment: Cytotoxicity against imatinib-resistant human K562 cells assessed as cell viability at 10 uM after 48 hrs by trypan blue exclusion assay relative to control; format: functional; details: K562, 48 h, read-out: Activity
[8] = Cytotoxicity against vemurafenib-resistant human A375 RIV cells assessed as cell viability at 10 uM after 48 hrs by trypan blue exclusion assay relative to control; format: functional; details: A-375, 48 h, read-out: Activity
[9] = tested on: BXPC-3; experiment: Cytotoxicity against gemcitabine-sensitive human BxPC3 cells assessed as cell viability at 0.1 uM after 48 hrs by trypan blue exclusion assay relative to control; format: functional; details: BXPC-3, 48 h, read-out: Activity
[10] = tested on: MIA PaCa-2; experiment: Cytotoxicity against gemcitabine-resistant human MIAPaCa2 cells assessed as cell viability at 0.1 uM after 48 hrs by trypan blue exclusion assay relative to control; format: functional; details: MIA PaCa-2, 48 h, read-out: Activity
[11] = tested on: A-375; experiment: Induction of apoptosis in human A375 cells assessed as cells with active caspase-3 at 1 uM after 12 hrs by flow cytometry (reference value: 4.16%); format: functional
[12] = tested on: K562; experiment: Cytotoxicity against imatinib-sensitive human K562 cells assessed as cell viability at 1 uM after 48 hrs by trypan blue exclusion assay relative to control; details: K562, 48 h, read-out: Activity
[13] = tested on: K562; experiment: Cytotoxicity against imatinib-resistant human K562 cells assessed as cell viability at 1 uM after 48 hrs by trypan blue exclusion assay relative to control; details: K562, 48 h, read-out: Activity
[14] = Cytotoxicity against vemurafenib-resistant human A375 RIV cells assessed as cell viability at 5 uM after 48 hrs by trypan blue exclusion assay relative to control; format: functional; details: A-375, 48 h, read-out: Activity
[15] = Cytotoxicity against vemurafenib-resistant human A375 R5C3 cells assessed as cell viability at 5 uM after 48 hrs by trypan blue exclusion assay relative to control; format: functional; details: A-375, 48 h, read-out: Activity
[16] = tested on: A-375; experiment: Cytotoxicity against vemurafenib-sensitive human A375 cells assessed as cell viability at 5 uM after 48 hrs by trypan blue exclusion assay relative to control; format: functional; details: A-375, 48 h, read-out: Activity

With `CCCCCc1ccc(S(=O)(=O)Nc2cccc(-c3csc(NC(C)=O)n3)c2)cc1` the viability at 10 µM [1] was 15.6%, the viability at 10 µM [2] was less than 1% and the viability at 10 µM [3] was 51%. It also gave a viability at 10 µM [4] of less than 1%, a viability at 10 µM [5] of 2.8% and a viability at 1 µM [6] of 27.7%. The viability at 10 µM [7] was 72.7% and the viability at 10 µM [8] was less than 1%.

`CC(=O)Nc1nc(-c2cccc(NS(=O)(=O)c3ccc(-c4ccccc4)cc3)c2)cs1` gave a viability at 10 µM [5] of 33.9%.

For `CC(=O)Nc1nc(-c2cccc(NS(=O)(=O)c3ccc4c(c3)CCC4)c2)cs1`, the viability at 10 µM [5] was 26.3%.

`CC(=O)Nc1nc(-c2cccc(NS(=O)(=O)c3cccs3)c2)cs1` showed a viability at 10 µM [5] of 29.6%.

Work on `CC(=O)Nc1nc(-c2cccc(NS(=O)(=O)c3ccccc3)c2)cs1` yielded a viability at 10 µM [5] of 72.2%.

`CC(=O)Nc1nc(-c2cccc(NS(=O)(=O)c3cccc4ccccc34)c2)cs1` showed a viability at 10 µM [5] of 20.4%.

With `CC(=O)Nc1nc(-c2cccc(NS(=O)(=O)c3cccc(C)c3)c2)cs1` the viability at 10 µM [5] was 51.2%.

With `Nc1ccn([C@@H]2O[C@H](CO)[C@@H](O)C2(F)F)c(=O)n1` [GEMCITABINE] the viability at 0.1 µM [9] was 2% and the viability at 0.1 µM [10] was 86.5%.

Work on `CC(=O)Nc1nc(-c2cccc(NS(=O)(=O)c3cn(C)cn3)c2)cs1` yielded a viability at 10 µM [5] of 36.8%.

In the case of `CC(=O)Nc1nc(-c2cccc(NS(=O)(=O)c3ccc4oc(=O)ccc4c3)c2)cs1`, the viability at 10 µM [5] was 65.5%.

Compound `CC(=O)Nc1nc(-c2cccc(NS(=O)(=O)c3cccc4cccnc34)c2)cs1` has a viability at 10 µM [5] of 59.5%.

`CN[C@@H]1C[C@H]2O[C@@](C)([C@@H]1OC)n1c3ccccc3c3c4c(c5c6ccccc6n2c5c31)C(=O)NC4` [STAUROSPORINE] showed an Activity [11] of 46.95%.

Work on `CC(=O)Nc1nc(-c2cccc(NS(=O)(=O)c3c[nH]cn3)c2)cs1` yielded a viability at 10 µM [5] of 45.7%.

For `CC(=O)Nc1nc(-c2cccc(NS(=O)(=O)c3ccc(C(C)(C)C)cc3)c2)cs1`, the viability at 10 µM [1] was 51.1%, the viability at 10 µM [2] was less than 1% and the viability at 10 µM [3] was 19.4%. For the same compound, the viability at 10 µM [4] was less than 1%, the viability at 10 µM [5] was 1.5% and the viability at 1 µM [6] was 39.4%. For the same compound, the viability at 10 µM [7] was 35.1% and the viability at 10 µM [8] was less than 1%.

`CC(=O)Nc1nc(-c2cccc(NS(=O)(=O)c3ccc4c(c3)OCCO4)c2)cs1` showed a viability at 10 µM [5] of 29.6%.

`CCc1ccc(S(=O)(=O)Nc2cccc(-c3csc(NC(C)=O)n3)c2)cc1` showed a viability at 10 µM [1] of 80.1%, a viability at 10 µM [2] of 40.7% and a viability at 10 µM [3] of 12.8%. For the same compound, the viability at 10 µM [4] was 21%, the viability at 10 µM [5] was 7.5% and the viability at 10 µM [7] was 27%. For the same compound, the viability at 10 µM [8] was 26.7%.

For `CC(=O)Nc1nc(-c2cccc(NS(=O)(=O)c3sc(C)nc3C)c2)cs1`, the viability at 10 µM [5] was 29.2%.

In the case of `CC(=O)Nc1nc(-c2cccc(NC(=O)c3ccc4ccccc4c3)c2)cs1`, the viability at 10 µM [1] was 63.8%, the viability at 10 µM [2] was 7% and the viability at 10 µM [3] was 53.9%. It also gave a viability at 10 µM [4] of 1.5%, a viability at 10 µM [5] of 18.3% and a viability at 10 µM [7] of 89.7%. For the same compound, the viability at 10 µM [8] was 30%.

`CCCCc1ccc(S(=O)(=O)Nc2cccc(-c3csc(NC(C)=O)n3)c2)cc1` gave a viability at 10 µM [1] of 9.9%, a viability at 10 µM [2] of less than 1% and a viability at 10 µM [3] of 51.6%. For the same compound, the viability at 10 µM [4] was 4.3%, the viability at 10 µM [5] was 2.2% and the viability at 10 µM [7] was 60.9%. It also gave a viability at 10 µM [8] of 26.7%.

With `CCCCC#Cc1ccc(S(=O)(=O)Nc2cccc(-c3csc(NC(C)=O)n3)c2)cc1` the viability at 10 µM [1] was 7.8%, the viability at 10 µM [2] was less than 1% and the viability at 10 µM [3] was 26.9%. The viability at 10 µM [4] was less than 1%, the viability at 10 µM [5] was less than 1% and the viability at 10 µM [7] was 35.1%. For the same compound, the viability at 10 µM [8] was 10%.

In the case of `CC(=O)Nc1nc(-c2cccc(NS(=O)(=O)c3ccc(-c4ccc(C)cc4)cc3)c2)cs1`, the viability at 10 µM [5] was 26.3%.

`CC(=O)Nc1nc(-c2cccc(NS(=O)(=O)c3ccc(I)cc3)c2)cs1` showed a viability at 10 µM [1] of 8.4%, a viability at 10 µM [2] of 15.8% and a viability at 10 µM [3] of 15%. For the same compound, the viability at 10 µM [4] was less than 1%, the viability at 10 µM [5] was less than 1% and the viability at 10 µM [7] was 27%. The viability at 10 µM [8] was 10%.

Work on `CC(=O)Nc1nc(-c2cccc(NS(=O)(=O)c3ccc4ccccc4c3)c2)cs1` yielded a viability at 10 µM [1] of 49.6%, a viability at 10 µM [2] of 7% and a viability at 10 µM [3] of 31%. The viability at 10 µM [4] was 0.6%, the viability at 10 µM [5] was 3.3% and the viability at 10 µM [7] was 25.6%. It also gave a viability at 10 µM [8] of 33.3%.

`CC(=O)Nc1nc(-c2cccc(NS(=O)(=O)c3cccc4c3ccn4C)c2)cs1` gave a viability at 10 µM [5] of 60.7%.

In the case of `CC(=O)Nc1nc(-c2cccc(NC(=O)c3ccco3)c2)cs1`, the viability at 10 µM [5] was 29.2%.

In the case of `Cc1ccc(NC(=O)c2ccc(CN3CCN(C)CC3)cc2)cc1Nc1nccc(-c2cccnc2)n1` [IMATINIB], the viability at 1 µM [12] was 9.7% and the viability at 1 µM [13] was 85.5%.

`CCCCCCCC(=O)Nc1cccc(-c2csc(NC(C)=O)n2)c1` gave a viability at 10 µM [5] of 40%.

For `CC(=O)Nc1nc(-c2cccc([N+](=O)[O-])c2)cs1`, the viability at 10 µM [5] was 47.3%.

`CC(=O)Nc1nc(-c2cccc(NS(=O)(=O)c3ccc(C)cc3)c2)cs1` showed a viability at 10 µM [1] of 75.9%, a viability at 10 µM [2] of 49.1% and a viability at 10 µM [3] of 15.3%. For the same compound, the viability at 10 µM [4] was 21.6%, the viability at 10 µM [5] was 19.8% and the viability at 10 µM [7] was 38.5%. The viability at 10 µM [8] was 53.3%.

`CC(=O)Nc1nc(-c2cccc(N)c2)cs1` gave a viability at 10 µM [5] of 38.4%.

Compound `CCCS(=O)(=O)Nc1ccc(F)c(C(=O)c2c[nH]c3ncc(-c4ccc(Cl)cc4)cc23)c1F` [VEMURAFENIB] has a viability at 5 µM [14] of 76.7%, a viability at 5 µM [15] of 101% and a viability at 5 µM [16] of 44%.

For `CC(=O)Nc1nc(-c2cccc(NS(=O)(=O)c3ccc(C)s3)c2)cs1`, the viability at 10 µM [5] was 37.5%.

In the case of `CC(=O)Nc1nc(-c2cccc(NS(=O)(=O)c3ccc4c(ccn4C)c3)c2)cs1`, the viability at 10 µM [5] was 46.5%.

For `CC(=O)Nc1nc(-c2cccc(NS(=O)(=O)c3cc4ccccc4s3)c2)cs1`, the viability at 10 µM [5] was 29.2%.

Reference: ChEMBL document CHEMBL4428084, “Discovery and Optimization of N-(4-(3-Aminophenyl)thiazol-2-yl)acetamide as a Novel Scaffold Active against Sensitive and Resistant Cancer Cells” (J Med Chem, 2016)
